Assays:
Assay type in all cases: in vivo
APPsw+/− mice [1] = experiment: Thioflavin S-positive amyloid load in brain, chronic treatment of APPsw+/− mice; details: 1 mg/kg per day i.p. for two months
Protocol: Amyloid load hippocampus and cortex of APPsw^+/− mice treated with vehicle (open bars) or FPS2 (closed bars). FPS2 (1 mg/kg per day), was administered intraperitoneally to mice for two months beginning at the age of 8 months. Values are means±s.e.m, n=5-6 per group.
(§1) In the chronic-treated mice, Aβ40 and Aβ42 levels in the hippocampus were reduced by about 85% and 90%, respectively, in the FPS2-treated mice compared to vehicle (FIG. 6A). Similarly, Aβ40 and Aβ42 levels in the cortex were reduced by about 70% and 80%, respectively (FIG. 6B).
Compounds were synthesized in parallel using semiautomated chemical reactions. […] Purity was assessed by reverse-phase gradient HPLC. […] After two months of treatment, (i) the cerebral blood flow response to brain activation (whisker stimulation) was measured and (ii) behavioral tests including operant learning, novel object location (NOL), and novel object recognition (NOR) were performed. After these functional tests, the mice were sacrificed and their brains analyzed for Aβ40, Aβ42, and amyloid levels. • CBF response to brain activation. The CBF response to vibrissal stimulation in anesthetized APPsw^+/− mice was measured by using laser-doppler flowmetry (Transonic Systems, BLF 21 D). […] The time exploring the novel and familiar objects was scored by hand to provide discrimination. • Human Aβ40 and Aβ42. […]

APPsw+/− mice [2] = experiment: Human Aβ40 and Aβ42 levels in hippocampus and cortex by ELISA, chronic treatment of APPsw+/− mice; details: 1 mg/kg per day i.p. for two months
Protocol: A-B, Aβ40 and Aβ42 levels in hippocampus (A) cortex (B) of APPsw^+/− mice treated with vehicle (filled square) or FPS2 (filled triangle). FPS2 (1 mg/kg per day) was administered intraperitoneally to mice for two months beginning at the age of 8 months. Values are means±s.e.m, n=5-6 per group.
as §1
Compounds were synthesized in parallel using semiautomated chemical reactions. Five commercially-available aromatic aldehydes were condensed in reductive amination reactions with five hydrophobic amines to form 25 secondary amines. Parallel acylation of these 25 secondary amines with five aromatic acyl chlorides provided the final 125-compound library of tertiary amides. The identity of compounds was verified by mass spectrometry (FIG. 9). Purity was assessed by reverse-phase gradient HPLC. Library members isolated with purity <95% were subjected to preparative HPLC purification prior to assay. • Animals. APPsw^+/− (Tg2576) mice were from Taconic Farms (Germantown, N.Y.). Mice were housed under standard conditions (12 hour light/dark cycle starting at 07:00 AM; 21±2° C.; 55±10% humidity) in solid-bottom cages on woodchip bedding. Mice were anesthetized by intraperitoneal injection with urethane (750 mg/kg) and α-chloralose (50 mg/kg). All procedures on mice were performed according to the NIH guidelines, which were approved by the University of Rochester's Committee on Animal Resources. • FPS2 chronic treatment of APPsw^+/− mice. APPsw^+/− mice (n=5-6 per group) were treated intraperitoneally with FPS2 (1 mg/kg per day) or saline for two months beginning at the age of 8 months. After two months of treatment, (i) the cerebral blood flow response to brain activation (whisker stimulation) was measured and (ii) behavioral tests including operant learning, novel object location (NOL), and novel object recognition (NOR) were performed. After these functional tests, the mice were sacrificed and their brains analyzed for Aβ40, Aβ42, and amyloid levels. • CBF response to brain activation. The CBF response to vibrissal stimulation in anesthetized APPsw^+/− mice was measured by using laser-doppler flowmetry (Transonic Systems, BLF 21 D). The tip of the laser-doppler probe was stereotaxically placed 0.5 mm above the dura of the cranial window. The right vibrissae were cut to about 5 mm and stimulated by gentle stroking at 3-4 Hz, for 1 min with a cotton-tip applicator. […] The time exploring the novel and familiar objects was scored by hand to provide discrimination. • Human Aβ40 and Aβ42. […]

[3] = system: RAGE-mediated transport of Aβ40 across the BBB; experiment: Arterial vascular brain perfusion: transport of 125I-Aβ40 across the BBB in APPsw+/− mice; details: Mus musculus, read-out: inhibition of Aβ transport across the BBB
Excerpt: The statistical significance of differences is shown. Data are mean±s.e.m., n=3-4 per group.
An arterial vascular brain perfusion technique (LaRue et al., 2004) was used to determine whether FPS2 blocks RAGE-mediated transport of circulating ^125I-labeled Aβ40 across the BBB in 4-6 month old APPsw^+/− mice. We and others have reported that expression of RAGE in brain microvessels in these mice is increased by about 5-fold compared to the littermate controls (Deane et al., 2003; Donahue et al., 2004).

CC(CC(=O)NCCCN(C(=O)c1cc([N+](=O)[O-])cc([N+](=O)[O-])c1)c1ccccc1)CC(C)(C)C (stereo not shown) [FPS2, 3,5-dinitro-N-phenyl-N-[3-[(3,5,5-trimethyl-1-oxohexyl)amino]propyl]-(9Cl)-benzamide]
reduction of thioflavin-S positive areas (amyloid load) in the cortex compared to vehicle (APPsw+/− mice [1]): about 85%
reduction of thioflavin-S positive areas (amyloid load) in the hippocampus compared to vehicle (APPsw+/− mice [1]): about 85%
reduction of Aβ40 level in the cortex compared to vehicle (APPsw+/− mice [2]): about 70%
reduction of Aβ40 level in the hippocampus compared to vehicle (APPsw+/− mice [2]): about 85%
reduction of Aβ42 level in the cortex compared to vehicle (APPsw+/− mice [2]): ~80%
reduction of Aβ42 level in the hippocampus compared to vehicle (APPsw+/− mice [2]): ~90%
inhibition at 4.8 µg/mL [3]: 100%

Source: patent publication US8778985B2, “Inhibiting amyloid-beta peptide/rage interaction at the blood-brain barrier” (The University of Rochester, priority 2006, dated 2014)
